Measurements: patent publication US5741782A, “Antibiotic cocktail and method of use” (Cryolife, Inc., priority 1996, dated 1998)
Where “and” joins values, the source holds several entries; their conditions need not be identical. Identical values can stand only once. Like-named read-outs stand apart in the source and are kept apart here.

Key:
bacteria = conditions: general statement; cited from earlier work
in vitro = conditions: human, heart valve leaflets, AVG % CONTRL, Example 3
Method: (§1) Preferably, however, the tissue is incubated with a radioactively-labeled amino acid, and the incorporation of the amino acid into proteins is monitored by counting disintegrations per minute (DPM) per unit of tissue.
(§2) All of the valve leaflet halves were incubated for 48 hours at 37° C. in the antibiotic cocktails and then cryopreserved.
(§3) Experiment #2: Paired halves of leaflets were again used. One half was used as a fresh control and immediately labelled with ^3 H-glycine to determine leaflet fibroblast viability (see below). […] The antibiotic-treated leaflets were incubated for 48 hours at 37° C. in the antibiotic cocktails and then cryopreserved.
(§4) A 1.8 ml Nalge cryovial was used to contain the leaflet tissue. The freezing program takes the tissue from +4° to -80° C. in approx 80 to 90 minutes.
(§5) The valve leaflet halves were stored in liquid nitrogen freezer for at least two days, but no more than three weeks, before being thawed.
(§6) The valve leaflet halves were thawed by removing the valve tissue to be thawed from the liquid nitrogen freezer. As quickly as possible, the tissue was transferred to a 37° C. waterbath. When all of the ice had dissolved (about 2 minutes), the cryovial was transferred to a hood, and 4 ml of room temperature lactated Ringers plus 5% dextrose (DBLR) was dispensed into a 5-ml snap-cap tube (Falcon) for each cryovial being thawed. The exterior of the cryovial was rinsed with 70% isopropanol and any excess wiped away before opening. Using sterile forceps, the leaflet tissue was transferred into the tube containing the DBLR. The tissue was allowed to remain in D5LR for 5 minutes.
(§7) Tissue viability was assessed by the measurement of ^3 H-glycine incorporation into proteins as follows. The thawed valve leaflet halves were placed in snap-cap tubes (Falcon) containing 16 μCi of tritiated-glycine (DuPont New England Nuclear) in 1 ml of DMEM supplemented with 15 μg/ml ascorbic acid. Radiolabeled glycine incorporation was determined after a 48 hour incubation at 37° C. in an atmosphere consisting of 5% carbon dioxide in air. The tissue was then washed four times with phosphate-buffered saline, dehydrated with ethanol and ether, air dried and weighed. The tissue samples were then rehydrated with 200 μl of water and solubilized by the addition of 500 μl of 1M NaOH. After incubation at 60° C. for 1 hour, the samples were sonicated twice for 20-seconds. […] The filter discs were dried, and the proteins precipitated by addition of ice-cold 10% trichloroacetic acid for 30 minutes. This was followed by five ethanol rinses, two ether rinses, and drying. The discs were then placed in 10 ml of scintillation fluid (Cytoscint ES, ICN Biomedicals, Inc., Irvine, Calif.). Tritium incorporation was measured by scintillation counting using a LS1701 (Beckman Instruments, Inc., Palo Alto, Calif.).
(§8) The incorporation of ^3 H-glycine into proteins is expressed in disintegrations per minute (DPM) per mg of dry tissue.

[1] = tested on: valve leaflet fibroblasts; conditions: for AVG incorporation of 3H-glycine: Example 10; for percent of control: Example 2
Method: as §1, §2, §3, §4, §5, §6, §7, §8

yeast isolates = assay: yeast challenge of antibiotic cocktails, overall; format: cell-based; conditions: for fungicidal activity (in words): Example 16, ten donor tissue isolates, 24 hours; for antiyeast activity at doses which maintain tissue viability (in words): summary of Examples 14 and 15
From the text: The ten yeast isolates tested were:

[2] = tested on: Candida albicans ATCC strain 14053; assay: survival of Candida albicans in antifungal cocktails (membrane filtration enumeration); format: cell-based; conditions: Example 14; for surviving yeast, Tube B: Tube B (734 CFU/ml at time zero), 35° C.; for fungicidal activity (in words): Tube B, fluconazole 100 μg/ml, amphotericin B 0.6 μg/ml, or fluconazole 100 + amphotericin B 0.3 μg/ml
Method: The Candida albicans used in these studies was ATCC strain 14053 (American Type Culture Collection). The purity of the strain was verified before and after cultivation.
The test organism was cultured on a Sabouraud Agar Plate, streaked for isolation, and incubated at 35° C. for 24 hours. A single colony was removed using a sterile cotton swab and placed in 5.0 ml of sterile saline. The mixture was vortexed, and dilutions were made and compared to a standard turbidity chart until the turbidity matched a 0.5 turbidity standard (a 0.5 MacFarland turbidity standard suspension). Serial dilutions were made as follows: (1) 0.5 ml of the 0.5 MacFarland turbidity standard was added to 4.5 ml of sterile normal saline (Tube A; expected population 10^5 cfu/ml); (2) 0.1 ml of the Tube A suspension was added to 9.9 ml of sterile normal saline (Tube B; expected population 10^3 cfu/ml); and (3) 0.1 ml of the Tube B suspension was added to 9.9 ml of sterile normal saline (Tube C; expected population 10 cfu/ml). Each serial dilution was vortexed for 30 seconds before the next transfer.
Tubes B and C were challenged with these cocktails. Each cocktail (24.0 ml) was placed into a sterile 115 ml plastic cup, and 1.0 ml of the yeast population from Tube B or C was added. The cups were mixed gently, capped and placed in the incubator for 24 hours at 35° C. After the prescribed incubation period, 1.0 ml of the yeast-cocktail mixture was removed from each tube and processed to obtain an enumeration of the surviving yeast organisms. The remaining mixture was placed back into the incubator and incubated for an additional 24 hours. After this incubation period, the cups were removed, swirled gently and 1.0 ml was removed, and the above process was repeated.
Enumeration of the yeast was performed as follows; each sample was tested in duplicate, One milliliter (1.0 ml) of year suspension was added to the top assembly of a sterile disposable filter apparatus which contained 99 ml of sterile normal saline. The contents were mixed gently and filtered. The filter pad was removed aseptically using sterile disposable forceps and placed on Sabouraud Agar plates. The plates were incubated at 35° C. for 24 hours, and the colonies were then counted.

[3] = tested on: cells responsible for allograft longevity in patients; conditions: literature: Hu et al., Lange and Hopkins, McNally and Brockbank; cited from earlier work
[4] = tested on: valve leaflet fibroblasts; assay: cells; conditions: Homo sapiens, Fibroblast, read-out: AVG percent of control, Example 2
Method: as §1, §2, §3, §4, §5, §6, §7, §8

CN[C@H](CC(C)C)C(=O)N[C@H]1C(=O)N[C@@H](CC(N)=O)C(=O)N[C@H]2C(=O)N[C@H]3C(=O)N[C@H](C(=O)N[C@H](C(=O)O)c4cc(O)cc(O)c4-c4cc3ccc4O)[C@H](O)c3ccc(c(Cl)c3)Oc3cc2cc(c3O[C@@H]2O[C@H](CO)[C@@H](O)[C@H](O)[C@H]2O[C@H]2C[C@](C)(N)[C@H](O)[C@H](C)O2)Oc2ccc(cc2Cl)[C@H]1O [Vancomycin, vancomycin]
antibacterial activity (in words) (bacteria): active against many gram-positive organisms, including staphylococci, streptococci, enterococci, Clostridium and Corynebacterium | lack of antibacterial activity (in words) (bacteria): inactive against gram-negative bacteria

C[C@@H](O)[C@H]1C(=O)N2C(C(=O)O)=C(SCCN=CN)C[C@H]12 [Imipenem, imipenem]
antibacterial activity (in words) (bacteria): active against most aerobic gram-positive and gram-negative bacteria and most anaerobic gram-positive and gram-negative bacteria | viability (in vitro; 12 μg/ml imipenem + rifampin 10 μg/ml): 86% | viability (in vitro; 24 μg/ml imipenem + rifampin 10 μg/ml): 90% | viability (in vitro; 48 μg/ml imipenem + rifampin 10 μg/ml): 104% | MEAN incorporation of 3H-glycine ([1]; Example 8, 48 μg/ml imipenem, 24 h): 5269 DPM/mg | MEAN incorporation of 3H-glycine ([1]; Example 8, 48 μg/ml imipenem, 48 h): 5316 DPM/mg | MEAN incorporation of 3H-glycine ([1]; Example 8, 72 μg/ml imipenem, 24 h): 6897 DPM/mg | MEAN incorporation of 3H-glycine ([1]; Example 8, 72 μg/ml imipenem, 48 h): 7198 DPM/mg | MEAN incorporation of 3H-glycine ([1]; Example 8, 96 μg/ml imipenem, 24 h): 5885 DPM/mg | MEAN incorporation of 3H-glycine ([1]; Example 8, 96 μg/ml imipenem, 48 h): 6526 DPM/mg

OC(Cn1cncn1)(Cn1cncn1)c1ccc(F)cc1F [Fluconazole, fluconazole]
fungicidal activity (in words) (yeast isolates): did not affect the fungicidal activity greatly | antiyeast activity at doses which maintain tissue viability (in words) (yeast isolates): Neither amphotericin B, nor fluconazole, alone substantially inhibits yeast growth at doses which substantially maintain tissue viability | surviving yeast, Tube B ([2]; 24 hr): 31 colonies | surviving yeast, Tube B ([2]; 48 hr): 45 colonies | fungicidal activity (in words) [2]: suggests a tolerance or static phenomenon | viability after treatment (in words) ([1]; Example 1, 100 μg/ml fluconazole added): not harmful to the tissue

C[C@@H]1[C@H](O)[C@@H](C)/C=C/C=C/C=C/C=C/C=C/C=C/C=C/[C@H](O[C@@H]2O[C@H](C)[C@@H](O)[C@H](N)[C@@H]2O)C[C@@H]2O[C@](O)(C[C@@H](O)C[C@@H](O)[C@H](O)CC[C@@H](O)C[C@@H](O)CC(=O)O[C@H]1C)C[C@H](O)[C@H]2C(=O)O [Amphotericin B, amphotericin B]
fungicidal activity (in words) (yeast isolates): shows greater fungicidal activity | antiyeast activity at doses which maintain tissue viability (in words) (yeast isolates): Neither amphotericin B, nor fluconazole, alone substantially inhibits yeast growth at doses which substantially maintain tissue viability | fungicidal activity (in words) [2]: fungicidal | average viability (in words) ([1]; Example 5, 0.3 μg/ml amphotericin B in the antibiotic mixture): average viability greater than the control | MEAN incorporation of 3H-glycine ([1]; Example 11, 0.3 μg/ml amphotericin B, 24 hours): 4965 DPM/mg | MEAN incorporation of 3H-glycine ([1]; Example 11, 0.6 μg/ml amphotericin B, 24 hours): 4960 DPM/mg | MEAN incorporation of 3H-glycine ([1]; Example 11, 1.0 μg/ml amphotericin B, 24 hours): 4914 DPM/mg | MEAN incorporation of 3H-glycine ([1]; Example 11, 2.0 μg/ml amphotericin B, 24 hours): 4236 DPM/mg | MEAN incorporation of 3H-glycine ([1]; Example 11, 3.0 μg/ml amphotericin B, 24 hours): 4452 DPM/mg | toxicity (in words) [3]: toxic to the cells responsible for allograft longevity in patients

CCN[C@@H]1C[C@H](N)[C@@H](O[C@H]2OC(CN)=CC[C@H]2N)[C@H](O)[C@H]1O[C@H]1OC[C@](C)(O)[C@H](NC)[C@H]1O [Netilmicin, netilmicin]
antibacterial activity (in words) (bacteria): effective against many aerobic gram-negative bacteria and some aerobic gram-positive bacteria | lack of antibacterial activity (in words) (bacteria): inactive against most streptococci and most anaerobic bacteria | fungicidal activity (in words) (yeast isolates): did not have any adverse effects on the fungicidal activity of fluoconazole and amphotericin B | AVG incorporation of 3H-glycine ([1]; 20 μg/ml netilmicin, 24 hours): 4213 DPM/mg | AVG incorporation of 3H-glycine ([1]; 30 μg/ml netilmicin, 24 hours): 6805 DPM/mg | AVG incorporation of 3H-glycine ([1]; 50 μg/ml netilmicin, 24 hours): 5815 DPM/mg

CO[C@H]1/C=C/O[C@@]2(C)Oc3c(C)c(O)c4c(O)c(c(/C=N/N5CCN(C)CC5)c(O)c4c3C2=O)NC(=O)/C(C)=C\C=C\[C@H](C)[C@H](O)[C@@H](C)[C@@H](O)[C@@H](C)[C@H](OC(C)=O)[C@@H]1C [Rifampin, rifampin]
activity at 10 µg/mL ([4]; 10 μg/ml rifampin): 93% | activity at 30 µg/mL ([4]; 30 μg/ml rifampin): 80% | activity at 100 µg/mL ([4]; 100 μg/ml rifampin): 42% | percent of control ([1]; 10 μg/ml rifampin): 96% and 110% and 91% and 75% and 73% and 114% | percent of control ([1]; 30 μg/ml rifampin): 94%
